Laboratory results taken from patent US20110224079A1, “SPIROHETEROCYCLIC N-OXYAMIDES AS PESTICIDES” (SYNGENTA CROP PROTECTION LLC, priority 2008, published 2011).

Experiments:
[1] = tested on: Thrips tabaci (onion thrips); assay: Example B3: activity against Thrips tabaci, sprayed sunflower leaf discs (feeding/residual contact, preventive); format: in vivo; conditions: foliar, 144 h, mixed population, 6 days
Source text: Activity Against Thrips tabaci (Onion Thrips)
(Mixed Population, Feeding/Residual Contact Activity, Preventive)

[2] = tested on: Plutella xylostella (diamond back moth); assay: Example B5: activity against Plutella xylostella, artificial diet in microtiter plate (larvicide, preventive); format: in vivo; conditions: 120 h, L2 larvae, 5 days, read-out: activity (larval mortality, antifeedant, growth regulation)
Procedure: Activity Against Plutella xylostella (Diamond Back Moth)
(Larvicide, Feeding/Residual Contact Activity, Preventive)
24-well microtiter plate (MTP) with artificial diet is treated with test solutions by pipetting. After drying, the MTP's are infested with larvae (L2)(10-15 per well). After an incubation period of 5 days, samples are checked for larval mortality, antifeedant and growth regulation.

[3] = tested on: Frankliniella occidentalis (western flower thrips); assay: Example B6: activity against Frankliniella occidentalis, bean leaf discs or bean plants; format: in vivo; conditions: foliar, 6 days (leaf discs) or 14 days (plants) after infestation, read-out: activity (reduction of treated population)
Procedure: Activity Against Frankliniella occidentalis (Western Flower Thrips)
Bean leaf discs on agar in petri dishes or bean plants in a spray chamber are treated with diluted test solutions. After drying leaf discs are cut and placed in plastic cups on the surface of an agar layer and infested with mixed population. 6 days (leaf discs) or 14 days (plants) after the infestation, samples are checked for reduction of treated population and compared to the non treated population.

[4] = tested on: Bemisia tabaci (tobacco white fly); assay: Example B7: activity against Bemisia tabaci, sprayed bean plants (larvicide, contact/feeding); format: in vivo; conditions: 504 h, bean plants with N-2 nymphs sprayed, three weeks, read-out: activity (efficacy, number of emerged adults)
How it was run: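 After a 4-day egg-laying period and 7 further days, bean plants bearing hatched N-2 nymphs were sprayed with test solutions (2 replicates). Emerged adults were counted three weeks later; efficacy was derived by comparison with untreated samples.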

[5] = tested on: Aphis Craccivora (cowpea aphid); assay: Example B9: activity against Aphis craccivora, sprayed pea seedlings (contact/feeding); format: in vivo; conditions: 144 h, infested pea seedlings sprayed, 6 days
Source text: (§1) Activity Against Aphis Craccivora (Cowpea Aphid)
(Mixed Population, Contact/Feeding)
6 days after treatment, samples are checked for mortality.

[6] = tested on: Aphis Craccivora (cowpea aphid); assay: Example B10: activity against Aphis craccivora, pea seedling roots in test solution (systemic/feeding); format: in vivo; conditions: 144 h, roots of infested pea seedlings in test solution, 6 days
Source text: as §1
(Mixed Population, Systemic/Feeding)

[7] = tested on: Aphis Craccivora (cowpea aphid); assay: Example B11: translaminar activity against Aphis craccivora on French bean leaves; format: in vivo; conditions: 120 h, upper leaf side painted, aphids on lower side, 5 days
Procedure: Translaminar Activity Against Aphis Craccivora (Cowpea Aphid)
French bean leaves (Phaseolus vulgaris) are infested with about 20 mixed age individuals on the lower leaf side using clip cages. 1 day after the infestation, the upper side of the leaves is treated with the test solution by painting. 5 days later, samples are checked for mortality.

[8] = tested on: Aonidiella Aurantii (red scale); assay: Example B12: activity against Aonidiella aurantii, dipped potato tubers; format: in vivo; conditions: 6-8 weeks after application, read-out: activity (number of crawlers of the next generation)
Source text: Activity Against Aonidiella Aurantii (Red Scale)
Treatment of potato tubers by dipping the in the test solution. One day later, tubers are infested with about 50 crawlers. 6-8 weeks after application samples are checked for the number of crawlers of the next generation (compared to the non treated samples).

[9] = tested on: Myzus persicae (green peach aphid); assay: Example B17: activity against Myzus persicae on sprayed pepper plants (feeding/residual contact); format: in vivo; conditions: 144 h, infested pepper plants sprayed, 6 days
[10] = tested on: Myzus persicae (green peach aphid); assay: Example B13: drench activity against Myzus persicae, pea seedlings in field soil; conditions: 168 h, read-out: drench activity (mortality)
[11] = tested on: Nilaparvata lugens (brown rice planthopper); assay: Example B8: activity against Nilaparvata lugens, sprayed rice seedlings (larvicide, feeding/contact); conditions: in Oryza sativa, read-out: activity (mortality, growth regulation, effects on F1 generation)
[12] = tested on: Myzus persicae (green peach aphid); assay: Example B2: activity against Myzus persicae, pea seedling roots in test solution (systemic/feeding, curative); conditions: 144 h, read-out: activity (mortality)
[13] = tested on: Myzus persicae (green peach aphid); assay: Example B1: activity against Myzus persicae, sprayed sunflower leaf discs (feeding/residual contact, preventive); conditions: foliar, 144 h, read-out: activity (mortality)
[14] = tested on: Myzus persicae (green peach aphid); assay: Example B15: drench activity (death rate, persistence) against Myzus persicae on pepper plants in field soil, comparison with A18; format: in vivo; conditions: for Mortality (%) xx days after application (drench, systemic action, persistence): 12.5 ppm drench, pepper plants in field soil, evaluation 7 days after infestation; for insecticidal action on Myzus persicae compared with state-of-the-art compound A18 (in words): drench application on pepper plants, summary of Table B15
Procedure: (§2) Comparison of the Insecticidal Activity and Crop Compatibility of Compounds According to the Invention with a Compound from the State of the Art (Compound No. A18 Described on Page 97 of WO09/049,851)
(§3) (Mixed Population, Drench Application in Field Soil, Persistence, Plant Damage Evaluation)
(§4) Samples are assessed 7 days after infestation on mortality. Treated plants are re-infested 7, 14, 21 and 28 days after application. Evaluation is always done 7 days after infestation. Plants are also checked for damage (phytotoxicity), visual assessment being made using a 0-100% rating scale (100%=total damage to plant; 0%=no damage to plant).

pepper plants = conditions: in vivo
Procedure: as §2, §3, §4

[15] = tested on: Tetranychus urticae (two-spotted spider mite); assay: Example B4: activity against Tetranychus urticae, sprayed bean leaf discs (feeding/residual contact, preventive); conditions: foliar, 192 h, read-out: activity (egg, larval and adult mortality)
[16] = infestation 0 days after application
[17] = re-infestation 7 days after application
[18] = re-infestation 14 days after application
[19] = re-infestation 21 days after application
[20] = re-infestation 28 days after application

Row | SMILES | mortality at 400 ppm [1] [%] | mortality at 400 ppm [2] [%] | pest or weed control at 200 ppm [4] [%] | mortality at 400 ppm [5] [%] | mortality at 400 ppm [6] [%] | mortality at 400 ppm [7] [%] | pest or weed control at 200 ppm [8] [%] | mortality at 200 ppm [9] [%] | mortality at 25 ppm [10] [%] | mortality at 400 ppm [11] [%] | mortality at 400 ppm [12] [%] | mortality at 400 ppm [13] [%] | Mortality (%) xx days after application (drench, systemic action, persistence) [14, 16] [%] | Mortality (%) xx days after application (drench, systemic action, persistence) [14, 17] [%] | Mortality (%) xx days after application (drench, systemic action, persistence) [14, 18] [%] | Mortality (%) xx days after application (drench, systemic action, persistence) [14, 19] [%] | Mortality (%) xx days after application (drench, systemic action, persistence) [14, 20] [%] | plant damage on pepper plants / plant compatibility (in words) (pepper plants) | mortality at 400 ppm [15] [%] | other results
1 | COCON1C(=O)C(c2c(C)cc(C)cc2C)=C(O)C12CCN(OC)CC2 [P2.6, 4-hydroxy-8-methoxy-1-methoxymethoxy-3-(2,4,6-trimethyl-phenyl)-1,8-diaza-spiro[4.5]dec-3-en-2-one] | > 80 | > 80 | > 80 | > 80 | > 80 | > 80 | > 80 | ≥ 80 | > 80 | > 80 | > 80 | > 80 |  |  |  |  |  |  |  | pest or weed control at 400 ppm [3]: > 80%
2 | CCOC(=O)OC1=C(c2c(C)cc(C)cc2C)C(=O)N(OCOC)C12CCN(OC)CC2 [P1.7, carbonic acid ethyl ester 8-methoxy-1-methoxymethoxy-2-oxo-3-(2,4,6-trimethyl-phenyl)-1,8-diaza-spiro[4.5]dec-3-en-4-yl ester] |  | > 80 | > 80 |  |  | > 80 | > 80 | ≥ 80 | > 80 | > 80 | > 80 | > 80 | 99 | 100 | 98 | 98 | 97 | no plant damage at all |  | insecticidal action on Myzus persicae compared with state-of-the-art compound A18 (in words) [14]: very similar to the action of the compound of the state of the art
3 | CCOC(=O)OC1=C(c2c(C)cc(Br)cc2C)C(=O)N(OCOC)C12CCN(OC)CC2 [P1.19] |  | > 80 |  |  |  | > 80 | > 80 | ≥ 80 | > 80 | > 80 | > 80 | > 80 |  |  |  |  |  |  |  | 
4 | CCOC(=O)OC1=C(c2c(C)cc(C)cc2C)C(=O)N(OC)C12CCN(OC)CC2 [P1.8] | > 80 | > 80 | > 80 | > 80 | > 80 | > 80 | > 80 | ≥ 80 | > 80 | > 80 | > 80 | > 80 |  |  |  |  |  |  | > 80 | 
5 | CCOC(=O)OC1=C(c2c(C)cc(C)cc2C)C(=O)N(OC2CCCO2)C12CCN(OC)CC2 (stereo not shown) [P1.9, Carbonic acid ethyl ester 8-methoxy-2-oxo-1-(tetrahydro-furan-2-yloxy)-3-(2,4,6-trimethyl-phenyl)-1,8-diaza-spiro[4.5]dec-3-en-4-yl ester] | > 80 | > 80 | > 80 |  | > 80 | > 80 | > 80 | ≥ 80 | > 80 | > 80 | > 80 | > 80 |  |  |  |  |  |  | > 80 | pest or weed control at 400 ppm [3]: > 80%
6 | CCOC(=O)OC1=C(c2c(C)cc(C)cc2C)C(=O)NC12CCN(OC)CC2 [A18, reference compound] |  |  |  |  |  |  |  |  |  |  |  |  | 100 | 100 | 98 | 95 | 95 | damages these to an untolerable high extend |  | 
7 | CCOC(=O)OC1=C(c2cc(C)ccc2C)C(=O)N(OCOC)C12CCN(OC)CC2 [P1.2, Carbonic acid 3-(2,5-dimethyl-phenyl)-8-methoxy-1-methoxy-methoxy-2-oxo-1,8-diaza-spiro[4.5]dec-3-en-4-yl ester ethyl ester] |  | > 80 | > 80 | > 80 | > 80 | > 80 |  | ≥ 80 | > 80 | > 80 | > 80 | > 80 |  |  |  |  |  |  |  | 
8 | CCOC(=O)OC1=C(c2c(C)cc(C)cc2C)C(=O)N(O)C12CCN(OC)CC2 [P1.11, carbonic acid ethyl ester 1-hydroxy-8-methoxy-2-oxo-3-(2,4,6-trimethyl-phenyl)-1,8-diaza-spiro[4.5]dec-3-en-4-yl ester] | > 80 | > 80 | > 80 |  | > 80 |  | > 80 | ≥ 80 | > 80 | > 80 | > 80 | > 80 | 97 | 95 | 95 | 100 | 100 | no plant damage at all | > 80 | insecticidal action on Myzus persicae compared with state-of-the-art compound A18 (in words) [14]: very similar to the action of the compound of the state of the art
9 | CON1CCC2(CC1)C(O)=C(c1c(C)cc(C)cc1C)C(=O)N2O [P2.4, 1,4-Dihydroxy-8-methoxy-3-(2,4,6-trimethyl-phenyl)-1,8-diaza-spiro[4.5]dec-3-en-2-one] |  | > 80 | > 80 |  |  |  |  |  | > 80 | > 80 | > 80 | > 80 |  |  |  |  |  |  | > 80 | 
10 | CCOC(=O)OC1=C(c2c(C)cccc2C)C(=O)N(OC)C12CCN(OC)CC2 [P1.74] | > 80 | > 80 |  |  |  |  |  |  |  |  | > 80 | > 80 |  |  |  |  |  |  | > 80 | 
